From patent US9675624B2, “Combination of levocabastine and fluticasone furoate for the treatment of inflammatory and/or allergic conditions” (Glaxo Group Limited, priority 2012, dated 2017) come the findings set out here.

A short description of the data set: Competitive ripening experiments on levocabastine free base forms. Format: physicochemical. The source says: It has been observed that the levocabastine HCl salt converts during the preparation of formulations of the invention (e.g. as described in Examples 1 and 2) to levocabastine free base. Levocabastine free base Forms 1 and 2 were observed during the form screen of the HCl salt and during pH solubility studies.

With `C[C@@H]1CN(C2CCC(C#N)(c3ccc(F)cc3)CC2)CC[C@]1(C(=O)O)c1ccccc1` (stereo partly drawn) [levocabastine Form 1, (3S,4R)-1-[4-cyano-4-(4-fluorophenyl)cyclohexyl]-3-methyl-4-phenylpiperidine-4-carboxylic acid], the “relative stability of polymorphic forms of the free base” value is on record as “most stable form”.
